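Each compound was tested at five concentrations against cells in 96-well plates for 48 hours. GI50 is the concentration that inhibits growth by half. The concentration for full growth arrest is given as TGI.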
Legend:
Experiment in all cases: DTP human tumour cell line panel, 48 h
NCI-H460 lung = tested on: NCI-H460 lung
SN12C renal = tested on: SN12C renal
SK-OV-3 ovarian = tested on: SK-OV-3 ovarian
T-47D breast = tested on: T-47D breast
MOLT-4 leukemia = tested on: MOLT-4 leukemia
COLO 205 colon = tested on: COLO 205 colon
SK-MEL-2 melanoma = tested on: SK-MEL-2 melanoma
MALME-3M melanoma = tested on: MALME-3M melanoma
K-562 leukemia = tested on: K-562 leukemia
OVCAR-3 ovarian = tested on: OVCAR-3 ovarian
OVCAR-5 ovarian = tested on: OVCAR-5 ovarian
HCC-2998 colon = tested on: HCC-2998 colon
UACC-62 melanoma = tested on: UACC-62 melanoma
TK-10 renal = tested on: TK-10 renal
HOP-92 NSCLC = tested on: HOP-92 NSCLC
SW-620 colon = tested on: SW-620 colon
PC-3 prostate = tested on: PC-3 prostate
OVCAR-4 ovarian = tested on: OVCAR-4 ovarian
MCF7 breast = tested on: MCF7 breast
NCI-H226 lung = tested on: NCI-H226 lung
A498 renal = tested on: A498 renal
IGROV1 ovarian = tested on: IGROV1 ovarian
OVCAR-8 ovarian = tested on: OVCAR-8 ovarian
SF-295 CNS = tested on: SF-295 CNS
786-0 renal = tested on: 786-0 renal
HL-60(TB) leukemia = tested on: HL-60(TB) leukemia
U251 CNS = tested on: U251 CNS
BT-549 breast = tested on: BT-549 breast
HOP-62 NSCLC = tested on: HOP-62 NSCLC
SNB-19 CNS = tested on: SNB-19 CNS
ACHN renal = tested on: ACHN renal
NCI/ADR-RES ovarian = tested on: NCI/ADR-RES ovarian
MDA-MB-435 = tested on: MDA-MB-435
HCT-116 colon = tested on: HCT-116 colon
SNB-75 CNS = tested on: SNB-75 CNS
DU-145 prostate = tested on: DU-145 prostate
A549 NSCLC = tested on: A549 NSCLC
RPMI-8226 leukemia = tested on: RPMI-8226 leukemia
HS 578T breast = tested on: HS 578T breast
UO-31 renal = tested on: UO-31 renal
HCT-15 colon = tested on: HCT-15 colon
UACC-257 melanoma = tested on: UACC-257 melanoma
SF-268 CNS = tested on: SF-268 CNS
SR leukemia = tested on: SR leukemia
KM12 colon = tested on: KM12 colon
CCRF-CEM leukemia = tested on: CCRF-CEM leukemia
M14 melanoma = tested on: M14 melanoma
MDA-MB-231 breast = tested on: MDA-MB-231 breast
SK-MEL-5 melanoma = tested on: SK-MEL-5 melanoma
NCI-H23 lung = tested on: NCI-H23 lung
RXF 393 renal = tested on: RXF 393 renal

## CN(C)CCS(=O)(=O)Nc1cc(-c2ccc3ncnc(Nc4ccc(F)c(Cl)c4)c3c2)cnc1Cl
NCI-H460 lung
  GI50: 1.04 µM
  TGI: > 100 µM
SN12C renal
  GI50: 0.624 µM
  TGI: > 100 µM
SK-OV-3 ovarian
  GI50: 0.261 µM
  TGI: 1.64 µM
T-47D breast
  GI50: 0.0941 µM
  TGI: 0.635 µM
MOLT-4 leukemia
  GI50: 0.257 µM
  TGI: 0.69 µM
COLO 205 colon
  GI50: 0.748 µM
  TGI: 2.22 µM
SK-MEL-2 melanoma
  GI50: 0.715 µM
  TGI: 2.74 µM
MALME-3M melanoma
  GI50: 0.114 µM
  TGI: 0.666 µM
K-562 leukemia
  GI50: 2.95 µM
  TGI: > 54.5 µM
OVCAR-3 ovarian
  GI50: 0.22 µM
  TGI: 1.2 µM
OVCAR-5 ovarian
  GI50: 0.268 µM
  TGI: > 22.8 µM
HCC-2998 colon
  GI50: 1.05 µM
  TGI: 3.04 µM
UACC-62 melanoma
  GI50: 0.938 µM
  TGI: 3.4 µM
TK-10 renal
  GI50: 0.188 µM
  TGI: 1.31 µM
HOP-92 NSCLC
  GI50: 0.0757 µM
  TGI: 0.513 µM
SW-620 colon
  GI50: 1.2 µM
  TGI: > 38 µM
PC-3 prostate
  GI50: 0.536 µM
  TGI: > 100 µM
OVCAR-4 ovarian
  GI50: 1.29 µM
  TGI: > 100 µM
MCF7 breast
  GI50: 0.292 µM
  TGI: > 100 µM
NCI-H226 lung
  GI50: 2.11 µM
  TGI: > 100 µM
A498 renal
  GI50: 0.336 µM
  TGI: 1.17 µM
IGROV1 ovarian
  GI50: 0.0859 µM
  TGI: 0.38 µM
OVCAR-8 ovarian
  GI50: 1.77 µM
  TGI: > 51.7 µM
SF-295 CNS
  GI50: 0.515 µM
  TGI: > 100 µM
786-0 renal
  GI50: 1.34 µM
  TGI: > 100 µM
HL-60(TB) leukemia
  GI50: 1.33 µM
  TGI: 9.15 µM
U251 CNS
  GI50: 0.85 µM
  TGI: 2.91 µM
BT-549 breast
  GI50: 0.24 µM
  TGI: 1.38 µM
HOP-62 NSCLC
  GI50: 0.473 µM
  TGI: > 100 µM
SNB-19 CNS
  GI50: 1.91 µM
  TGI: > 100 µM
ACHN renal
  GI50: 0.392 µM
  TGI: > 100 µM
NCI/ADR-RES ovarian
  GI50: 3.32 µM
  TGI: > 100 µM
MDA-MB-435
  GI50: 0.713 µM
  TGI: 3.04 µM
HCT-116 colon
  GI50: 0.829 µM
  TGI: 6.43 µM
SNB-75 CNS
  GI50: 0.282 µM
  TGI: > 100 µM
DU-145 prostate
  GI50: 0.566 µM
  TGI: > 37.3 µM
A549 NSCLC
  GI50: 0.803 µM
  TGI: 3.26 µM
RPMI-8226 leukemia
  GI50: 1.04 µM
  TGI: 4.52 µM
HS 578T breast
  GI50: 0.32 µM
  TGI: 10.8 µM
UO-31 renal
  GI50: 0.259 µM
  TGI: 1.69 µM
HCT-15 colon
  GI50: 1.11 µM
  TGI: 4.36 µM
UACC-257 melanoma
  GI50: 0.775 µM
  TGI: 6.81 µM
SF-268 CNS
  GI50: 0.549 µM
  TGI: > 100 µM
SR leukemia
  GI50: 0.809 µM
KM12 colon
  GI50: 1.46 µM
  TGI: 4.25 µM
CCRF-CEM leukemia
  GI50: 0.322 µM
  TGI: > 37 µM
M14 melanoma
  GI50: 0.655 µM
  TGI: > 35.4 µM
MDA-MB-231 breast
  GI50: 0.37 µM
  TGI: 1.8 µM
SK-MEL-5 melanoma
  GI50: 0.208 µM
  TGI: 0.622 µM
NCI-H23 lung
  GI50: 0.577 µM
  TGI: > 100 µM
RXF 393 renal
  GI50: 0.256 µM
  TGI: 1.22 µM
